Measurements from PubChem BioAssay (NCI).
Values joined by “and” are separate entries in the source; they are usually repeats but may differ in a detail not shown here. Equal entries are not always repeated.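 In this assay, cells in 96-well plates receive the compound at five concentrations for 48 hours. Endpoints are linearly interpolated between the surrounding concentrations. GI50 is the concentration that inhibits growth by half. The concentration for full growth arrest is given as TGI.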

Experiments:
Experiment in all cases: NCI tumour cell line growth inhibition, 48 h
SN12K1 renal = test system: SN12K1 renal
CCRF-CEM leukemia = test system: CCRF-CEM leukemia
DMS 114 small cell lung = test system: DMS 114 small cell lung
SNB-78 CNS = test system: SNB-78 CNS
DLD-1 colon = test system: DLD-1 colon
HOP-62 NSCLC = test system: HOP-62 NSCLC
HT29 colon = test system: HT29 colon
A498 renal = test system: A498 renal
SF-295 CNS = test system: SF-295 CNS
MALME-3M melanoma = test system: MALME-3M melanoma
NCI-H522 lung = test system: NCI-H522 lung
MCF7 breast = test system: MCF7 breast
OVCAR-4 ovarian = test system: OVCAR-4 ovarian
OVCAR-5 ovarian = test system: OVCAR-5 ovarian
NCI-H460 lung = test system: NCI-H460 lung

Q: For `C/C(=C\COc1ccc2ccc(=O)oc2c1)C1=CC(=O)C(C)(C)O1`, which TGI (SN12K1 renal) is on record?
A: 9.97 µM

Q: What about the GI50 (CCRF-CEM leukemia) of the same compound?
A: 2.28 µM

Q: What about the TGI (CCRF-CEM leukemia) of the same compound?
A: 7.11 µM and 21.4 µM

Q: What about the TGI (DMS 114 small cell lung) of the same compound?
A: 9.44 µM

Q: What about the TGI (SNB-78 CNS) of the same compound?
A: 61.3 µM

Q: And the TGI (DLD-1 colon)?
A: 30.8 µM

Q: And the GI50 (HOP-62 NSCLC)?
A: 6.12 µM

Q: And the TGI (HOP-62 NSCLC)?
A: 39.7 µM and 14.1 µM

Q: What about the GI50 (HT29 colon) of the same compound?
A: 3.55 µM

Q: What about the TGI (HT29 colon) of the same compound?
A: 13.3 µM and 7.83 µM

Q: And the GI50 (A498 renal)?
A: 2.79 µM

Q: What about the TGI (A498 renal) of the same compound?
A: 7.32 µM and 9.56 µM

Q: And the GI50 (SF-295 CNS)?
A: 4.3 µM

Q: And the TGI (SF-295 CNS)?
A: 20.4 µM and 8.41 µM

Q: What about the TGI (MALME-3M melanoma) of the same compound?
A: 25.6 µM and 14.8 µM

Q: And the GI50 (NCI-H522 lung)?
A: 2.37 µM and 0.804 µM

Q: And the TGI (NCI-H522 lung)?
A: 7.73 µM and 3.76 µM

Q: What about the GI50 (MCF7 breast) of the same compound?
A: 2.35 µM and 1.09 µM

Q: And the TGI (MCF7 breast)?
A: 12.9 µM and 5.4 µM

Q: And the GI50 (OVCAR-4 ovarian)?
A: 4.3 µM

Q: And the TGI (OVCAR-4 ovarian)?
A: 24.8 µM and 7.56 µM

Q: What about the GI50 (OVCAR-5 ovarian) of the same compound?
A: 3.19 µM

Q: What about the TGI (OVCAR-5 ovarian) of the same compound?
A: 10.8 µM and 20.9 µM

Q: And the GI50 (NCI-H460 lung)?
A: 2.61 µM and 4.07 µM

Q: What about the TGI (NCI-H460 lung) of the same compound?
A: 6.29 µM and 11.5 µM
